{"source": "paper PMC7377239", "about": "“Cardiovascular Effects of Polychlorinated Biphenyls and Their Major Metabolites” (Environmental Health Perspectives, 2020)", "system": "iCell cardiomyocytes (human iPSC-derived cardiomyocytes)", "test": "Intracellular Ca2+ flux / beating parameters in iCell cardiomyocytes (FLIPR tetra), 90 min or 24 h", "format": "cell-based", "conditions": "Homo sapiens, Cardiomyocyte, 0.00 µM = 100.00; for activity at 0.1 µM: 0.10 µM", "in_short": "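PODs were defined as the concentration crossing one SD of the vehicle-control means (0.5% DMSO) on four-parameter logistic fits of Ca2+ trace metrics (peak height, frequency, peak-spacing CV, decay/rise ratio). Traces came from 100 s, 8 Hz FLIPR reads at 37 °C on calcium-dye-loaded iCell cardiomyocytes. Before reading, cells were treated for 90 min or 24 h from 5× chemical plates spanning 0.05–500 µM, in triplicate.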", "key": {"[1]": {"conditions": "1.5 h, read-out: cm.amp.avg.90min"}, "[2]": {"conditions": "1.5 h, read-out: cm.amp.cv.90min"}, "[3]": {"conditions": "1.5 h, read-out: cm.decay.rise.90min"}, "[4]": {"conditions": "1.5 h, read-out: cm.spacing.cv.90min"}, "[5]": {"conditions": "24 h, read-out: cm.amp.avg.24hrs"}, "[6]": {"conditions": "24 h, read-out: cm.amp.cv.24hrs"}, "[7]": {"conditions": "24 h, read-out: cm.decay.rise.24hrs"}, "[8]": {"conditions": "24 h, read-out: cm.spacing.cv.24hrs"}}, "note": "Where two headings read alike, the source gives them in different places."}
{"smiles": "Oc1cc(Cl)cc(-c2cccc(Cl)c2)c1", "note": "[5-OH PCB 11]", "values": [{"measurement": "activity at 0.01 µM", "setting": "[1]", "value": 101, "unit": "%"}, {"measurement": "activity at 0.01 µM", "setting": "[2]", "value": 105, "unit": "%"}, {"measurement": "activity at 0.01 µM", "setting": "1.5 h, read-out: cm.bpm.90min", "value": 97.8, "unit": "%"}, {"measurement": "activity at 0.01 µM", "setting": "[3]", "value": 102, "unit": "%"}, {"measurement": "activity at 0.01 µM", "setting": "[4]", "value": 101, "unit": "%"}, {"measurement": "activity at 0.1 µM", "setting": "[1]", "value": 102, "unit": "%"}, {"measurement": "activity at 0.1 µM", "setting": "[2]", "value": 103, "unit": "%"}, {"measurement": "activity at 0.1 µM", "setting": "1.5 h, read-out: cm.bpm.90min", "value": 100, "unit": "%"}, {"measurement": "activity at 0.1 µM", "setting": "[3]", "value": 98.1, "unit": "%"}, {"measurement": "activity at 0.1 µM", "setting": "[4]", "value": 107, "unit": "%"}, {"measurement": "activity at 1 µM", "setting": "[1]", "value": 104, "unit": "%"}, {"measurement": "activity at 1 µM", "setting": "[2]", "value": 101, "unit": "%"}, {"measurement": "activity at 1 µM", "setting": "1.5 h, read-out: cm.bpm.90min", "value": 102, "unit": "%"}, {"measurement": "activity at 1 µM", "setting": "[3]", "value": 98.3, "unit": "%"}, {"measurement": "activity at 1 µM", "setting": "[4]", "value": 99.1, "unit": "%"}, {"measurement": "activity at 10 µM", "setting": "[1]", "value": 94.2, "unit": "%"}, {"measurement": "activity at 10 µM", "setting": "[2]", "value": 105, "unit": "%"}, {"measurement": "activity at 10 µM", "setting": "1.5 h, read-out: cm.bpm.90min", "value": 137, "unit": "%"}, {"measurement": "activity at 10 µM", "setting": "[3]", "value": 92, "unit": "%"}, {"measurement": "activity at 10 µM", "setting": "[4]", "value": 106, "unit": "%"}, {"measurement": "activity at 100 µM", "setting": "[1]", "value": 0, "unit": "%"}, {"measurement": "activity at 100 µM", "setting": "[2]", "value": 0, "unit": "%"}, {"measurement": "activity at 100 µM", "setting": "1.5 h, read-out: cm.bpm.90min", "value": 0, "unit": "%"}, {"measurement": "activity at 100 µM", "setting": "[3]", "value": 0, "unit": "%"}, {"measurement": "activity at 100 µM", "setting": "[4]", "value": 0, "unit": "%"}, {"measurement": "activity at 0.01 µM", "setting": "[5]", "value": 128, "unit": "%"}, {"measurement": "activity at 0.01 µM", "setting": "[6]", "value": 95.9, "unit": "%"}, {"measurement": "activity at 0.01 µM", "setting": "24 h, read-out: cm.bpm.24hrs", "value": 104, "unit": "%"}, {"measurement": "activity at 0.01 µM", "setting": "[7]", "value": 94.3, "unit": "%"}, {"measurement": "activity at 0.01 µM", "setting": "[8]", "value": 112, "unit": "%"}, {"measurement": "activity at 0.1 µM", "setting": "[5]", "value": 123, "unit": "%"}, {"measurement": "activity at 0.1 µM", "setting": "[6]", "value": 81.7, "unit": "%"}, {"measurement": "activity at 0.1 µM", "setting": "24 h, read-out: cm.bpm.24hrs", "value": 97.4, "unit": "%"}, {"measurement": "activity at 0.1 µM", "setting": "[7]", "value": 98.8, "unit": "%"}, {"measurement": "activity at 0.1 µM", "setting": "[8]", "value": 113, "unit": "%"}, {"measurement": "activity at 1 µM", "setting": "[5]", "value": 151, "unit": "%"}, {"measurement": "activity at 1 µM", "setting": "[6]", "value": 71, "unit": "%"}, {"measurement": "activity at 1 µM", "setting": "24 h, read-out: cm.bpm.24hrs", "value": 91.7, "unit": "%"}, {"measurement": "activity at 1 µM", "setting": "[7]", "value": 100, "unit": "%"}, {"measurement": "activity at 1 µM", "setting": "[8]", "value": 89.5, "unit": "%"}, {"measurement": "activity at 10 µM", "setting": "[5]", "value": 126, "unit": "%"}, {"measurement": "activity at 10 µM", "setting": "[6]", "value": 83.9, "unit": "%"}, {"measurement": "activity at 10 µM", "setting": "24 h, read-out: cm.bpm.24hrs", "value": 114, "unit": "%"}, {"measurement": "activity at 10 µM", "setting": "[7]", "value": 104, "unit": "%"}, {"measurement": "activity at 10 µM", "setting": "[8]", "value": 101, "unit": "%"}, {"measurement": "activity at 100 µM", "setting": "[5]", "value": 0, "unit": "%"}, {"measurement": "activity at 100 µM", "setting": "[6]", "value": 0, "unit": "%"}, {"measurement": "activity at 100 µM", "setting": "24 h, read-out: cm.bpm.24hrs", "value": 0, "unit": "%"}, {"measurement": "activity at 100 µM", "setting": "[7]", "value": 0, "unit": "%"}, {"measurement": "activity at 100 µM", "setting": "[8]", "value": 0, "unit": "%"}]}
{"smiles": "O=C1C=CC(=O)C(c2ccc(Cl)cc2)=C1", "note": "[4-Cl-BQ, 2-(4-Chlorophenyl)benzo-2,5-quinone]", "values": [{"measurement": "activity at 0.01 µM", "setting": "[1]", "value": 91.7, "unit": "%"}, {"measurement": "activity at 0.01 µM", "setting": "[2]", "value": 113, "unit": "%"}, {"measurement": "activity at 0.01 µM", "setting": "1.5 h, read-out: cm.bpm.90min", "value": 103, "unit": "%"}, {"measurement": "activity at 0.01 µM", "setting": "[3]", "value": 99.5, "unit": "%"}, {"measurement": "activity at 0.01 µM", "setting": "[4]", "value": 135, "unit": "%"}, {"measurement": "activity at 0.1 µM", "setting": "[1]", "value": 92.1, "unit": "%"}, {"measurement": "activity at 0.1 µM", "setting": "[2]", "value": 88.6, "unit": "%"}, {"measurement": "activity at 0.1 µM", "setting": "1.5 h, read-out: cm.bpm.90min", "value": 100, "unit": "%"}, {"measurement": "activity at 0.1 µM", "setting": "[3]", "value": 96.6, "unit": "%"}, {"measurement": "activity at 0.1 µM", "setting": "[4]", "value": 99.9, "unit": "%"}, {"measurement": "activity at 1 µM", "setting": "[1]", "value": 92.1, "unit": "%"}, {"measurement": "activity at 1 µM", "setting": "[2]", "value": 105, "unit": "%"}, {"measurement": "activity at 1 µM", "setting": "1.5 h, read-out: cm.bpm.90min", "value": 95.3, "unit": "%"}, {"measurement": "activity at 1 µM", "setting": "[3]", "value": 107, "unit": "%"}, {"measurement": "activity at 1 µM", "setting": "[4]", "value": 104, "unit": "%"}, {"measurement": "activity at 10 µM", "setting": "[1]", "value": 101, "unit": "%"}, {"measurement": "activity at 10 µM", "setting": "[2]", "value": 118, "unit": "%"}, {"measurement": "activity at 10 µM", "setting": "1.5 h, read-out: cm.bpm.90min", "value": 124, "unit": "%"}, {"measurement": "activity at 10 µM", "setting": "[3]", "value": 104, "unit": "%"}, {"measurement": "activity at 10 µM", "setting": "[4]", "value": 225, "unit": "%"}, {"measurement": "activity at 100 µM", "setting": "[1]", "value": 0, "unit": "%"}, {"measurement": "activity at 100 µM", "setting": "[2]", "value": 0, "unit": "%"}, {"measurement": "activity at 100 µM", "setting": "1.5 h, read-out: cm.bpm.90min", "value": 0, "unit": "%"}, {"measurement": "activity at 100 µM", "setting": "[3]", "value": 0, "unit": "%"}, {"measurement": "activity at 100 µM", "setting": "[4]", "value": 0, "unit": "%"}, {"measurement": "activity at 0.01 µM", "setting": "[5]", "value": 112, "unit": "%"}, {"measurement": "activity at 0.01 µM", "setting": "[6]", "value": 125, "unit": "%"}, {"measurement": "activity at 0.01 µM", "setting": "24 h, read-out: cm.bpm.24hrs", "value": 101, "unit": "%"}, {"measurement": "activity at 0.01 µM", "setting": "[7]", "value": 85.3, "unit": "%"}, {"measurement": "activity at 0.01 µM", "setting": "[8]", "value": 104, "unit": "%"}, {"measurement": "activity at 0.1 µM", "setting": "[5]", "value": 97.3, "unit": "%"}, {"measurement": "activity at 0.1 µM", "setting": "[6]", "value": 130, "unit": "%"}, {"measurement": "activity at 0.1 µM", "setting": "24 h, read-out: cm.bpm.24hrs", "value": 100, "unit": "%"}, {"measurement": "activity at 0.1 µM", "setting": "[7]", "value": 96.8, "unit": "%"}, {"measurement": "activity at 0.1 µM", "setting": "[8]", "value": 92.5, "unit": "%"}, {"measurement": "activity at 1 µM", "setting": "[5]", "value": 105, "unit": "%"}, {"measurement": "activity at 1 µM", "setting": "[6]", "value": 96.8, "unit": "%"}, {"measurement": "activity at 1 µM", "setting": "24 h, read-out: cm.bpm.24hrs", "value": 93.6, "unit": "%"}, {"measurement": "activity at 1 µM", "setting": "[7]", "value": 103, "unit": "%"}, {"measurement": "activity at 1 µM", "setting": "[8]", "value": 98.4, "unit": "%"}, {"measurement": "activity at 10 µM", "setting": "[5]", "value": 45.5, "unit": "%"}, {"measurement": "activity at 10 µM", "setting": "[6]", "value": 56.6, "unit": "%"}, {"measurement": "activity at 10 µM", "setting": "24 h, read-out: cm.bpm.24hrs", "value": 64.9, "unit": "%"}, {"measurement": "activity at 10 µM", "setting": "[7]", "value": 72.1, "unit": "%"}, {"measurement": "activity at 10 µM", "setting": "[8]", "value": 63.9, "unit": "%"}, {"measurement": "activity at 100 µM", "setting": "[5]", "value": 0, "unit": "%"}, {"measurement": "activity at 100 µM", "setting": "[6]", "value": 0, "unit": "%"}, {"measurement": "activity at 100 µM", "setting": "24 h, read-out: cm.bpm.24hrs", "value": 0, "unit": "%"}, {"measurement": "activity at 100 µM", "setting": "[7]", "value": 0, "unit": "%"}, {"measurement": "activity at 100 µM", "setting": "[8]", "value": 0, "unit": "%"}]}
